Laboratory results reported in PubChem BioAssay AID2060885 (Molecular Pharmacology Branch, DTP, NCI, 2025).

System: NCI-H23 complex spheroids with HUVEC/MSC, viability
Assay: Anticancer human tumor NCI-H23 cell line growth inhibition [RAS];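 further: spheroids exposed to compound for 7 days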;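 on viability, T/C: 100% = DMSO vehicle control viability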
Conditions: for IC50: curve of first compound; for viability, T/C: stronger effect = lower value
Summary of the method: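 Multi-cell-type spheroids: tumor cells plus HUVEC endothelial cells and mesenchymal stem cells. RAS-pathway inhibitors were combined with targeted agents, each dosed in half-log steps down from clinical Cmax, or from 10 microM when Cmax was unknown.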

What does the source list for `NC1c2ccccc2OC12CCN(c1cnc3c(N4CCCc5ncccc54)n[nH]c3n1)CC2` (centres undefined) + C#Cc1c(F)ccc2cc(O)cc(-c3ncc4c(N5CC6CCC(C5)N6)nc(OCC56CCCN5CC(F)C6)nc4c3F)c12?
IC50 (second compound 0.0316 µM): 281 nM; IC50 (second compound 0.1 µM): 268 nM; IC50 (second compound 0.316 µM): 175 nM; IC50 (second compound 1 µM): 57 nM; IC50 (second compound 3.16 µM): < 31.6 nM; IC50 (second compound 10 µM): < 31.6 nM; viability, T/C (second compound 0.0316 µM, first compound 0.0316 µM): 69.3%; viability, T/C (second compound 0.0316 µM, first compound 0.1 µM): 76.8%; viability, T/C (second compound 0.0316 µM, first compound 0.316 µM): 47.3%; viability, T/C (second compound 0.0316 µM, first compound 1 µM): 41.6%; viability, T/C (second compound 0.0316 µM, first compound 3.16 µM): 35.7%; viability, T/C (second compound 0.0316 µM, first compound 10 µM): 34%; viability, T/C (second compound 0.1 µM, first compound 0.0316 µM): 74.9%; viability, T/C (second compound 0.1 µM, first compound 0.1 µM): 65%; viability, T/C (second compound 0.1 µM, first compound 0.316 µM): 45.8%; viability, T/C (second compound 0.1 µM, first compound 1 µM): 38.6%; viability, T/C (second compound 0.1 µM, first compound 3.16 µM): 33.9%; viability, T/C (second compound 0.1 µM, first compound 10 µM): 30.1%; viability, T/C (second compound 0.316 µM, first compound 0.0316 µM): 76.3%; viability, T/C (second compound 0.316 µM, first compound 0.1 µM): 56.4%; viability, T/C (second compound 0.316 µM, first compound 0.316 µM): 40.3%; viability, T/C (second compound 0.316 µM, first compound 1 µM): 36.4%; viability, T/C (second compound 0.316 µM, first compound 3.16 µM): 31.4%; viability, T/C (second compound 0.316 µM, first compound 10 µM): 22.3%; viability, T/C (second compound 1 µM, first compound 0.0316 µM): 58.4%; viability, T/C (second compound 1 µM, first compound 0.1 µM): 40.6%; viability, T/C (second compound 1 µM, first compound 0.316 µM): 32.8%; viability, T/C (second compound 1 µM, first compound 1 µM): 32.4%; viability, T/C (second compound 1 µM, first compound 3.16 µM): 21.7%; viability, T/C (second compound 1 µM, first compound 10 µM): 19.6%; viability, T/C (second compound 3.16 µM, first compound 0.0316 µM): 38.5%; viability, T/C (second compound 3.16 µM, first compound 0.1 µM): 38.6%; viability, T/C (second compound 3.16 µM, first compound 0.316 µM): 31.5%; viability, T/C (second compound 3.16 µM, first compound 1 µM): 25.2%; viability, T/C (second compound 3.16 µM, first compound 3.16 µM): 21%; viability, T/C (second compound 3.16 µM, first compound 10 µM): 15.5%; viability, T/C (second compound 10 µM, first compound 0.0316 µM): 28.4%; viability, T/C (second compound 10 µM, first compound 0.1 µM): 30.7%; viability, T/C (second compound 10 µM, first compound 0.316 µM): 19%; viability, T/C (second compound 10 µM, first compound 1 µM): 16.2%; viability, T/C (second compound 10 µM, first compound 3.16 µM): 15.5%; viability, T/C (second compound 10 µM, first compound 10 µM): 12.6%

What does the source list for `CCN1CCN(Cc2ccc(Nc3ncc(F)c(-c4cc(F)c5nc(C)n(C(C)C)c5c4)n3)nc2)CC1` + CCn1c(-c2cccnc2C(C)OC)c2c3cc(ccc31)N1CCOC(CC(NC(=O)C(C(C)C)N(C)C(=O)C3(F)CCN(C(=O)C#CC(C)(C)N(C)C)CC3)C(=O)N3CCCC(N3)C(=O)OCC(C)(C)C2)C1?
IC50 (second compound 0.000949 µM): < 3.16 nM; IC50 (second compound 0.003 µM): < 3.16 nM; IC50 (second compound 0.00949 µM): < 3.16 nM; IC50 (second compound 0.03 µM): < 3.16 nM; IC50 (second compound 0.0949 µM): < 3.16 nM; IC50 (second compound 0.3 µM): < 3.16 nM; viability, T/C (second compound 0.000949 µM, first compound 0.00316 µM): 27.6%; viability, T/C (second compound 0.000949 µM, first compound 0.01 µM): 26.4%; viability, T/C (second compound 0.000949 µM, first compound 0.0316 µM): 14%; viability, T/C (second compound 0.000949 µM, first compound 0.1 µM): 15.9%; viability, T/C (second compound 0.000949 µM, first compound 0.316 µM): 14.6%; viability, T/C (second compound 0.000949 µM, first compound 1 µM): 10.6%; viability, T/C (second compound 0.003 µM, first compound 0.00316 µM): 28.6%; viability, T/C (second compound 0.003 µM, first compound 0.01 µM): 20.8%; viability, T/C (second compound 0.003 µM, first compound 0.0316 µM): 16.3%; viability, T/C (second compound 0.003 µM, first compound 0.1 µM): 15%; viability, T/C (second compound 0.003 µM, first compound 0.316 µM): 12.9%; viability, T/C (second compound 0.003 µM, first compound 1 µM): 10.8%; viability, T/C (second compound 0.00949 µM, first compound 0.00316 µM): 26.9%; viability, T/C (second compound 0.00949 µM, first compound 0.01 µM): 21.9%; viability, T/C (second compound 0.00949 µM, first compound 0.0316 µM): 16%; viability, T/C (second compound 0.00949 µM, first compound 0.1 µM): 14.2%; viability, T/C (second compound 0.00949 µM, first compound 0.316 µM): 12.3%; viability, T/C (second compound 0.00949 µM, first compound 1 µM): 11.5%; viability, T/C (second compound 0.03 µM, first compound 0.00316 µM): 30.6%; viability, T/C (second compound 0.03 µM, first compound 0.01 µM): 21.5%; viability, T/C (second compound 0.03 µM, first compound 0.0316 µM): 18%; viability, T/C (second compound 0.03 µM, first compound 0.1 µM): 12.5%; viability, T/C (second compound 0.03 µM, first compound 0.316 µM): 11.2%; viability, T/C (second compound 0.03 µM, first compound 1 µM): 13.2%; viability, T/C (second compound 0.0949 µM, first compound 0.00316 µM): 23.4%; viability, T/C (second compound 0.0949 µM, first compound 0.01 µM): 22.1%; viability, T/C (second compound 0.0949 µM, first compound 0.0316 µM): 15.8%; viability, T/C (second compound 0.0949 µM, first compound 0.1 µM): 13.2%; viability, T/C (second compound 0.0949 µM, first compound 0.316 µM): 10.2%; viability, T/C (second compound 0.0949 µM, first compound 1 µM): 14.9%; viability, T/C (second compound 0.3 µM, first compound 0.00316 µM): 22.2%; viability, T/C (second compound 0.3 µM, first compound 0.01 µM): 19.3%; viability, T/C (second compound 0.3 µM, first compound 0.0316 µM): 14.2%; viability, T/C (second compound 0.3 µM, first compound 0.1 µM): 12.1%; viability, T/C (second compound 0.3 µM, first compound 0.316 µM): 12%; viability, T/C (second compound 0.3 µM, first compound 1 µM): 14.2%
